Reference: publication PMC9312188, “Antioxidant Activity Evaluation and Assessment of the Binding Affinity to HSA of a New Catechol Hydrazinyl-Thiazole Derivative” (Antioxidants, 2022)

Biological target: T1, human serum albumin (HSA) (Homo sapiens, UniProt P02768)
T1 construct: gene ALB; commercial HSA from Sigma-Aldrich, full mature protein, untagged, monomeric
Assay: isothermal titration calorimetry, independent binding model
Settings: read-out: Ka (converted)

T1 sequence (P02768 25-609): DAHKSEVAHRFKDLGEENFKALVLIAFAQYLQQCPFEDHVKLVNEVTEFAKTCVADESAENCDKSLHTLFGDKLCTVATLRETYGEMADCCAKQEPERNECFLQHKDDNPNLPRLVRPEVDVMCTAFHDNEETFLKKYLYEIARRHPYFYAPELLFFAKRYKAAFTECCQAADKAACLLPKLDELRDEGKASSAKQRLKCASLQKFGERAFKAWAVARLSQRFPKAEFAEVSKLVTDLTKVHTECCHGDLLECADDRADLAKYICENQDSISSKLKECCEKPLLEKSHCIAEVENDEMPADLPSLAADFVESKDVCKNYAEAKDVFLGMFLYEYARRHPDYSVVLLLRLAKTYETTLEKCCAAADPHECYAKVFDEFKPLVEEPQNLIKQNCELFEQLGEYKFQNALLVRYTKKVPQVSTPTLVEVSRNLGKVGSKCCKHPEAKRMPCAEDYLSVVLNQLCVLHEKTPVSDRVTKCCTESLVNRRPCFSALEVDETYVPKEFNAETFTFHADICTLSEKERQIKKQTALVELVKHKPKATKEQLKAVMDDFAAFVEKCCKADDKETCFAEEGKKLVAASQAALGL

Kd: 140 µM
SMILES: Cc1csc(N/N=C/c2ccc(O)c(O)c2)n1 [compound 5, (E)-2-(3,4-dihydroxybenzylidene)-1-(4-methylthiazol-2-yl)hydrazin-1-ium chloride]
